Columns and labels:
Rattus norvegicus [1] = assay: Toxicity in […] normotensive Wistar rat assessed as mean arterial pressure at 40 mg/kg, ip after 60 mins (reference value: 95.07 +/- 1.973 mmHg); format: organism-based, Artery; design: dose 40 mg/kg, route intraperitoneal; conditions: in vivo, 1 h
Rattus norvegicus [2] = assay: Antihypertensive activity in Wistar rat assessed as mean arterial pressure at 40 mg/kg, ip measured immediately at 0 min (reference value: 194.08 +/- 1.962 mmHg); format: functional, Artery; conditions: route intraperitoneal
Rattus norvegicus [3] = assay: Antihypertensive activity in Wistar rat assessed as mean arterial pressure at 40 mg/kg, ip after 15 mins (reference value: 195.68 +/- 1.623 mmHg); format: functional, Artery; conditions: route intraperitoneal
Rattus norvegicus [4] = assay: Antihypertensive activity in Wistar rat assessed as mean arterial pressure at 40 mg/kg, ip after 30 mins (reference value: 194.72 +/- 1.002 mmHg); format: functional, Artery; conditions: route intraperitoneal
Rattus norvegicus [5] = assay: Antihypertensive activity in Wistar rat assessed as mean arterial pressure at 40 mg/kg, ip after 45 mins (reference value: 193.96 +/- 0.865 mmHg); format: functional, Artery; conditions: route intraperitoneal
Rattus norvegicus [6] = assay: Antihypertensive activity in Wistar rat assessed as mean arterial pressure at 40 mg/kg, ip after 60 mins (reference value: 195.11 +/- 0.531 mmHg); format: functional, Artery; conditions: route intraperitoneal
Rattus norvegicus [7] = assay: Toxicity in anesthetized-normotensive Wistar rat assessed as heart rate at 40 mg/kg, ip measured immediately at 0 min (reference value: 316.62 +/- 9.643 bpm); format: organism-based; design: dose 40 mg/kg, route intraperitoneal; conditions: in vivo, 0 h
Rattus norvegicus [8] = assay: Toxicity in anesthetized-normotensive Wistar rat assessed as heart rate at 40 mg/kg, ip after 15 mins (reference value: 313.93 +/- 9.912 bpm); format: organism-based; design: dose 40 mg/kg, route intraperitoneal; conditions: in vivo, 0.25 h
Rattus norvegicus [9] = assay: Toxicity in anesthetized-normotensive Wistar rat assessed as heart rate at 40 mg/kg, ip after 30 mins (reference value: 317.68 +/- 7.631 bpm); format: organism-based; design: dose 40 mg/kg, route intraperitoneal; conditions: in vivo, 0.5 h
Rattus norvegicus [10] = assay: Toxicity in anesthetized-normotensive Wistar rat assessed as heart rate at 40 mg/kg, ip after 45 mins (reference value: 316.82 +/- 8.452 bpm); format: organism-based; design: dose 40 mg/kg, route intraperitoneal; conditions: in vivo, 0.75 h
Rattus norvegicus [11] = assay: Toxicity in anesthetized-normotensive Wistar rat assessed as heart rate at 40 mg/kg, ip after 60 mins (reference value: 314.96 +/- 9.442 bpm); format: organism-based; design: dose 40 mg/kg, route intraperitoneal; conditions: in vivo, 1 h
Rattus norvegicus [12] = assay: Antiarrhythmic activity in barium chloride-induced Wistar rat assessed as increase in appearance time of arrhythmia at 40 mg/kg, ip administered 60 mins before barium chloride challenge (reference value: 129.4 +/- 4.373 sec); format: functional, Heart; conditions: route intraperitoneal
Rattus norvegicus [13] = assay: Antiarrhythmic activity in barium chloride-induced Wistar rat assessed as increase in mortality time at 40 mg/kg, ip administered 60 mins before barium chloride challenge (reference value: 682.8 +/- 9.656 secs); format: functional, Heart; conditions: route intraperitoneal
Rattus norvegicus [14] = assay: Toxicity in anaesthetized-Wistar rat assessed as P-Q ECG interval at 40 mg/kg, ip measured immediately at 0 min (reference value: 52.4 +/- 0.927 ms); format: organism-based; design: dose 40 mg/kg, route intraperitoneal; conditions: in vivo, 0 h
Rattus norvegicus [15] = assay: Toxicity in anaesthetized-Wistar rat assessed as QRS ECG interval at 40 mg/kg, ip measured immediately at 0 min (reference value: 19.6 +/- 1.142 ms); format: organism-based; design: dose 40 mg/kg, route intraperitoneal; conditions: in vivo, 0 h
Rattus norvegicus [16] = assay: Toxicity in anaesthetized-Wistar rat assessed as Q-T ECG interval at 40 mg/kg, ip measured immediately at 0 min (reference value: 78.8 +/- 1.030 ms); format: organism-based; design: dose 40 mg/kg, route intraperitoneal; conditions: in vivo, 0 h
Rattus norvegicus [17] = assay: Toxicity in anaesthetized-Wistar rat assessed as P-Q ECG interval at 40 mg/kg, ip after 15 mins (reference value: 52.2 +/- 1.158 ms); format: organism-based; design: dose 40 mg/kg, route intraperitoneal; conditions: in vivo, 0.25 h
Rattus norvegicus [18] = assay: Toxicity in anaesthetized-Wistar rat assessed as QRS ECG interval at 40 mg/kg, ip after 15 mins (reference value: 18.9 +/- 1.563 ms); format: organism-based; design: dose 40 mg/kg, route intraperitoneal; conditions: in vivo, 0.25 h
Rattus norvegicus [19] = assay: Toxicity in anaesthetized-Wistar rat assessed as Q-T ECG interval at 40 mg/kg, ip after 15 mins (reference value: 79.4 +/- 1.270 ms); format: organism-based; design: dose 40 mg/kg, route intraperitoneal; conditions: in vivo, 0.25 h
Rattus norvegicus [20] = assay: Toxicity in anaesthetized-Wistar rat assessed as P-Q ECG interval at 40 mg/kg, ip after 30 mins (reference value: […] +/- 0.927 ms); format: organism-based; design: dose 40 mg/kg, route intraperitoneal; conditions: in vivo, 0.5 h
Rattus norvegicus [21] = assay: Toxicity in anaesthetized-Wistar rat assessed as QRS ECG interval at 40 mg/kg, ip after 30 mins (reference value: 19.9 +/- 1.393 ms); format: organism-based; design: dose 40 mg/kg, route intraperitoneal; conditions: in vivo, 0.5 h
Rattus norvegicus [22] = assay: Toxicity in anaesthetized-Wistar rat assessed as Q-T ECG interval at 40 mg/kg, ip after 30 mins (reference value: 78.3 +/- 0.860 ms); format: organism-based; design: dose 40 mg/kg, route intraperitoneal; conditions: in vivo, 0.5 h
Rattus norvegicus [23] = assay: Toxicity in anaesthetized-Wistar rat assessed as P-Q ECG interval at 40 mg/kg, ip after 45 mins (reference value: 52.5 +/- 0.780 ms); format: organism-based; design: dose 40 mg/kg, route intraperitoneal; conditions: in vivo, 0.75 h
Rattus norvegicus [24] = assay: Toxicity in anaesthetized-Wistar rat assessed as QRS ECG interval at 40 mg/kg, ip after 45 mins (reference value: 20.2 +/- 1.348 ms); format: organism-based; design: dose 40 mg/kg, route intraperitoneal; conditions: in vivo, 0.75 h
Rattus norvegicus [25] = assay: Toxicity in anaesthetized-Wistar rat assessed as P-Q ECG interval at 40 mg/kg, ip after 60 mins (reference value: […] +/- 0.924 ms); format: organism-based; design: dose 40 mg/kg, route intraperitoneal; conditions: in vivo, 1 h
Rattus norvegicus [26] = assay: Toxicity in anaesthetized-Wistar rat assessed as QRS ECG interval at 40 mg/kg, ip after 60 mins (reference value: 19.3 +/- 0.873 ms); format: organism-based; design: dose 40 mg/kg, route intraperitoneal; conditions: in vivo, 1 h
Rattus norvegicus [27] = assay: Toxicity in anaesthetized-Wistar rat assessed as Q-T ECG interval at 40 mg/kg, ip after 60 mins (reference value: 79.7 +/- 0.965 ms); format: organism-based; design: dose 40 mg/kg, route intraperitoneal; conditions: in vivo, 1 h
Rattus norvegicus [28] = assay: Toxicity in […] normotensive Wistar rat assessed as mean arterial pressure at 40 mg/kg, ip measured immediately at 0 min (reference value: 94.21 +/- 2.065 mmHg); format: organism-based, Artery; design: dose 40 mg/kg, route intraperitoneal; conditions: in vivo, 0 h
Rattus norvegicus [29] = assay: Toxicity in […] normotensive Wistar rat assessed as mean arterial pressure at 40 mg/kg, ip after 15 mins (reference value: 93.81 +/- 1.543 mmHg); format: organism-based, Artery; design: dose 40 mg/kg, route intraperitoneal; conditions: in vivo, 0.25 h
Rattus norvegicus [30] = assay: Toxicity in […] normotensive Wistar rat assessed as mean arterial pressure at 40 mg/kg, ip after 30 mins (reference value: 94.68 +/- 1.213 mmHg); format: organism-based, Artery; design: dose 40 mg/kg, route intraperitoneal; conditions: in vivo, 0.5 h
Rattus norvegicus [31] = assay: Toxicity in […] normotensive Wistar rat assessed as mean arterial pressure at 40 mg/kg, ip after 45 mins (reference value: 94.83 +/- 0.943 mmHg); format: organism-based, Artery; design: dose 40 mg/kg, route intraperitoneal; conditions: in vivo, 0.75 h

Row | SMILES | Activity (Rattus norvegicus [1]) | Activity (Rattus norvegicus [2]) | Activity (Rattus norvegicus [3]) | Activity (Rattus norvegicus [4]) | Activity (Rattus norvegicus [5]) | Activity (Rattus norvegicus [6]) | Activity (Rattus norvegicus [7]) | Activity (Rattus norvegicus [8]) | Activity (Rattus norvegicus [9]) | Activity (Rattus norvegicus [10]) | Activity (Rattus norvegicus [11]) | Time (Rattus norvegicus [12]) | Time (Rattus norvegicus [13]) | Activity (Rattus norvegicus [14]) | Activity (Rattus norvegicus [15]) | Activity (Rattus norvegicus [16]) | Activity (Rattus norvegicus [17]) | Activity (Rattus norvegicus [18]) | Activity (Rattus norvegicus [19]) | Activity (Rattus norvegicus [20]) | further results
1 | CCCCN(CCCC)CC(O)CN1C(=O)/C(=C\c2ccccc2)S/C1=N\c1ccccc1 (centres undefined) | 90.59 mmHg | 195.08 mmHg | 171.43 mmHg | 159.69 mmHg | 163.37 mmHg | 182.09 mmHg | 309.12 bpm | 297.25 bpm | 276.46 bpm | 283.5 bpm | 301.69 bpm | 265.4 s | 786.2 s | 53.5 ms | 20.4 min | 67 min | 55 min | 21.6 min | 67.9 min | 56.1 min | Activity (Rattus norvegicus [21]): 22 ms; Activity (Rattus norvegicus [22]): 68.9 min; Activity (Rattus norvegicus [23]): 57.3 min; Activity (Rattus norvegicus [24]): 22.4 min; Activity (Rattus norvegicus [25]): 54.3 min; Activity (Rattus norvegicus [26]): 22.6 min; Activity (Rattus norvegicus [27]): 66.4 ms; Activity (Rattus norvegicus [28]): 95.56 mmHg; Activity (Rattus norvegicus [29]): 84.43 mmHg; Activity (Rattus norvegicus [30]): 77.87 mmHg; Activity (Rattus norvegicus [31]): 80.16 mmHg
2 | O=C1/C(=C\c2ccccc2)S/C(=N\c2ccccc2)N1CC(O)CN1CCOCC1 (centres undefined) | 71.43 mmHg | 195.43 mmHg | 175.31 mmHg | 168.61 mmHg | 131.61 mmHg | 154.93 mmHg | 315.15 bpm | 304.65 bpm | 293.54 bpm | 294.42 bpm | 308.42 bpm | 313.5 s | 1089.8 s | 49.9 ms | 23.4 min | 74.3 min | 50.2 min | 23.2 min | 74.9 min | 50.9 min | Activity (Rattus norvegicus [21]): 23.8 ms; Activity (Rattus norvegicus [22]): 73.2 min; Activity (Rattus norvegicus [23]): 51.3 min; Activity (Rattus norvegicus [24]): 23.1 min; Activity (Rattus norvegicus [25]): 52.7 min; Activity (Rattus norvegicus [26]): 23.7 min; Activity (Rattus norvegicus [27]): 74.2 ms; Activity (Rattus norvegicus [28]): 92.99 mmHg; Activity (Rattus norvegicus [29]): 82.61 mmHg; Activity (Rattus norvegicus [30]): 73.87 mmHg; Activity (Rattus norvegicus [31]): 62.69 mmHg
3 | O=C1/C(=C\c2ccccc2)S/C(=N\c2ccccc2)N1CC(O)CN1CCCCC1 (centres undefined) | 76.12 mmHg | 194.76 mmHg | 165.33 mmHg | 134.16 mmHg | 145.87 mmHg | 166.84 mmHg | 308.43 bpm | 297.54 bpm | 268.74 bpm | 274.15 bpm | 303.32 bpm | 279.3 s | 886.9 s | 52.2 ms | 20.2 min | 72.7 min | 51.7 min | 21.5 min | 72.9 min | 51.9 min | Activity (Rattus norvegicus [21]): 21.9 ms; Activity (Rattus norvegicus [22]): 73.3 min; Activity (Rattus norvegicus [23]): 50.6 min; Activity (Rattus norvegicus [24]): 22.8 min; Activity (Rattus norvegicus [25]): 51.5 min; Activity (Rattus norvegicus [26]): 22.6 min; Activity (Rattus norvegicus [27]): 71.8 ms; Activity (Rattus norvegicus [28]): 94.65 mmHg; Activity (Rattus norvegicus [29]): 82.63 mmHg; Activity (Rattus norvegicus [30]): 72.76 mmHg; Activity (Rattus norvegicus [31]): 64.69 mmHg
4 | CN1CCN(CC(O)CN2C(=O)/C(=C\c3ccccc3)S/C2=N\c2ccccc2)CC1 (centres undefined) | 74.63 mmHg | 196.43 mmHg | 182.76 mmHg | 157.99 mmHg | 134.44 mmHg | 162.19 mmHg | 305.65 bpm | 290.24 bpm | 256.32 bpm | 283.56 bpm | 302.28 bpm | 349.7 s | 1276 s | 53 ms | 22.4 min | 74.5 min | 53.2 min | 22.6 min | 74.8 min | 54.4 min | Activity (Rattus norvegicus [21]): 23.2 ms; Activity (Rattus norvegicus [22]): 75.2 min; Activity (Rattus norvegicus [23]): 54.9 min; Activity (Rattus norvegicus [24]): 23.6 min; Activity (Rattus norvegicus [25]): 55.6 min; Activity (Rattus norvegicus [26]): 24 min; Activity (Rattus norvegicus [27]): 75.6 ms; Activity (Rattus norvegicus [28]): 91.93 mmHg; Activity (Rattus norvegicus [29]): 79.37 mmHg; Activity (Rattus norvegicus [30]): 63.43 mmHg; Activity (Rattus norvegicus [31]): 64.51 mmHg

From ChEMBL document CHEMBL3232945 (Eur J Med Chem, 2014)
